Patent US7192906B2, “Substituted pyrazole derivatives, production process thereof, and herbicide compositions containing the derivatives” (SDS Biotech K.K., priority 2001, dated 2007)

How the values were obtained:
Type in all cases: in vivo
Rice (Oryza sativa) = experiment: Test Example 3 paddy field treatment, crop phytotoxicity; conditions: active ingredient 1 kg per hectare, index 0-5; for Herbicidal activity OS (phytotoxicity to rice): paddy field treatment, transplanted rice Koshihikari, wettable powder, 21st day after the dropping; for Herbicidal activity (phytotoxicity) OS: Table 6, paddy field treatment, transplanted rice, 21st day after dropping
Description: (§1) A plastic pot of 130 cm^2 was filled with paddy soil, and soil puddling was carried out to adjust the submerged depth to 4 cm. Subsequently, seeds of Echinochloa crusgalli, Monochoria vaginalis, Ammannia multiflora and Scirpus juncoides were sowed, and rice (Oryza sative, variety: Koshihikari) of two-leaf period was transplanted by 2 rice plants of 1 stub per pot at a depth of 3 cm. On the 10th day after the transplantation, the wettable powder prepared in Formulation Example 1 was diluted with water such that the amount of the active ingredient became 1 kg per hectare, and then dropped to diffuse on the water surface. On the 21st day after the dropping, observation and evaluation were carried out according to the aforesaid criteria.
(§2) Herbicidal activity was evaluated based on the following criteria.
(§3) • 5: herbicidal effect of not less than 90%, or phytotoxicity of 90% or more • 4: herbicidal effect of not less than 70% and less than 90%, or phytotoxicity of 70% or more and less than 90% • 3: herbicidal effect of not less than 50% and less than 70%, or phytotoxicity of 50% or more and less than 70% • 2: herbicidal effect of not less than 30% and less than 50%, or phytotoxicity of 30% or more and less than 50% • 1: herbicidal effect of not less than 10% and less than 30%, or phytotoxicity of 10% or more and less than 30% • 0: herbicidal effect of not less than 0% and less than 10%, or phytotoxicity of 0% or more and less than 10%

Monochoria vaginalis = experiment: Test Example 3 paddy field treatment; conditions: active ingredient 1 kg per hectare, index 0-5
Description: as §1, §2, §3

Ammannia multiflora = experiment: Test Example 3 paddy field treatment; conditions: active ingredient 1 kg per hectare, index 0-5
Description: as §1, §2, §3

Scirpus juncoides = experiment: Test Example 3 paddy field treatment; conditions: active ingredient 1 kg per hectare, index 0-5
Description: as §1, §2, §3

Echinochloa crusgalli = experiment: Test Example 3 paddy field treatment; conditions: active ingredient 1 kg per hectare, index 0-5
Description: as §1, §2, §3

soybean (Glycine max) = experiment: Test Example 1 upland field foliage treatment, crop phytotoxicity; conditions: Table 4, upland field foliage treatment, index 0-5
Description: (§4) A plastic pot of 130 cm^2 was filled with upland soil. Subsequently, weed seeds of Setaria viridis, Digitaria adscendens, Chenopodium album and Stellaria media, and crop seeds of soybean (Glycine max) and wheat (Triticum aestivum), were sowed and covered with soil of about 1 cm thickness. On the 14th day after the sowing, the wettable powder prepared in Formulation Example 1 was diluted with water such that the amount of the active ingredient became 1 kg per hectare, and then uniformly applied to the plant leaf surfaces. On the 21st day after the application, observation and evaluation were carried out according to the criteria described below.
as §2, §3

[1] = system: wheat (Triticum aestivum); experiment: as above; conditions: Table 4, upland field foliage treatment, index 0-5
Description: as §4, §2, §3

Stellaria media = experiment: Test Example 1 upland field foliage treatment; conditions: Table 4, upland field foliage treatment, index 0-5
Description: as §4, §2, §3

Chenopodium album = experiment: Test Example 1 upland field foliage treatment; conditions: Table 4, upland field foliage treatment, index 0-5
Description: as §4, §2, §3

Digitaria adscendens = experiment: Test Example 1 upland field foliage treatment; conditions: Table 4, upland field foliage treatment, index 0-5
Description: as §4, §2, §3

Setaria viridis = experiment: Test Example 1 upland field foliage treatment; conditions: Table 4, upland field foliage treatment, index 0-5
Description: as §4, §2, §3

[2] = paddy field treatment, wettable powder, 21st day after the dropping
[3] = Table 6, paddy field treatment, 21st day after dropping

Structure (SMILES)	Herbicidal activity OS (phytotoxicity to rice) (Rice (Oryza sativa))	Herbicidal activity MV (Monochoria vaginalis; [2])	Herbicidal activity AM (Ammannia multiflora; [2])	Herbicidal activity SJ (Scirpus juncoides; [2])	Herbicidal activity EC (Echinochloa crusgalli; [2])	Herbicidal activity (phytotoxicity) GM: Soybean (Glycine max) (soybean (Glycine max))	Herbicidal activity (phytotoxicity) TA: Wheat (Triticum aestivum) [1]	Herbicidal activity SM: Stellaria media (Stellaria media)	Herbicidal activity CA: Chenopodium album (Chenopodium album)	Herbicidal activity DA: Digitaria adscendens (Digitaria adscendens)	Herbicidal activity SV: Setaria viridis (Setaria viridis)	Herbicidal activity (phytotoxicity) OS (Rice (Oryza sativa))	Herbicidal activity MV (Monochoria vaginalis; [3])	Herbicidal activity AM (Ammannia multiflora; [3])	Herbicidal activity SJ (Scirpus juncoides; [3])	Herbicidal activity EC (Echinochloa crusgalli; [3])
CNC(=O)C(Cn1cc(C)c(C2CCCCC2)n1)=NOC [Compound 11]	1 (herbicidal effect of not less than 10% and less than 30%, or phytotoxicity of 10% or more and less than 30%)	5 (herbicidal effect of not less than 90%, or phytotoxicity of 90% or more)	5 (herbicidal effect of not less than 90%, or phytotoxicity of 90% or more)	5 (herbicidal effect of not less than 90%, or phytotoxicity of 90% or more)	5 (herbicidal effect of not less than 90%, or phytotoxicity of 90% or more)	0 (herbicidal effect of not less than 0% and less than 10%, or phytotoxicity of 0% or more and less than 10%)	0 (herbicidal effect of not less than 0% and less than 10%, or phytotoxicity of 0% or more and less than 10%)	3 (herbicidal effect of not less than 50% and less than 70%, or phytotoxicity of 50% or more and less than 70%)	5 (herbicidal effect of not less than 90%, or phytotoxicity of 90% or more)	5 (herbicidal effect of not less than 90%, or phytotoxicity of 90% or more)	3 (herbicidal effect of not less than 50% and less than 70%, or phytotoxicity of 50% or more and less than 70%)					
CNC(=O)C(Cn1cc(C)c(-c2ccccc2F)n1)=NOC [Compound 42]	0 (herbicidal effect of not less than 0% and less than 10%, or phytotoxicity of 0% or more and less than 10%)	5 (herbicidal effect of not less than 90%, or phytotoxicity of 90% or more)	5 (herbicidal effect of not less than 90%, or phytotoxicity of 90% or more)	5 (herbicidal effect of not less than 90%, or phytotoxicity of 90% or more)	5 (herbicidal effect of not less than 90%, or phytotoxicity of 90% or more)	0 (herbicidal effect of not less than 0% and less than 10%, or phytotoxicity of 0% or more and less than 10%)	0 (herbicidal effect of not less than 0% and less than 10%, or phytotoxicity of 0% or more and less than 10%)	5 (herbicidal effect of not less than 90%, or phytotoxicity of 90% or more)	5 (herbicidal effect of not less than 90%, or phytotoxicity of 90% or more)	5 (herbicidal effect of not less than 90%, or phytotoxicity of 90% or more)	5 (herbicidal effect of not less than 90%, or phytotoxicity of 90% or more)					
CNC(=O)C(Cn1cc(C)c(-c2ccc(C(F)(F)F)c(F)c2)n1)=NOC [Compound 87]												0 (herbicidal effect of not less than 0% and less than 10%, or phytotoxicity of 0% or more and less than 10%)	5 (herbicidal effect of not less than 90%, or phytotoxicity of 90% or more)	5 (herbicidal effect of not less than 90%, or phytotoxicity of 90% or more)	5 (herbicidal effect of not less than 90%, or phytotoxicity of 90% or more)	5 (herbicidal effect of not less than 90%, or phytotoxicity of 90% or more)
CNC(=O)C(Cn1cc(C)c(-c2ccc(F)c(C(F)(F)F)c2)n1)=NOC [Compound 90]												0 (herbicidal effect of not less than 0% and less than 10%, or phytotoxicity of 0% or more and less than 10%)	5 (herbicidal effect of not less than 90%, or phytotoxicity of 90% or more)	5 (herbicidal effect of not less than 90%, or phytotoxicity of 90% or more)	4 (herbicidal effect of not less than 70% and less than 90%, or phytotoxicity of 70% or more and less than 90%)	5 (herbicidal effect of not less than 90%, or phytotoxicity of 90% or more)
CNC(=O)C(Cn1cc(C)c(-c2ccc(OC)cc2OC(F)F)n1)=NOC [Compound 91]												0 (herbicidal effect of not less than 0% and less than 10%, or phytotoxicity of 0% or more and less than 10%)	5 (herbicidal effect of not less than 90%, or phytotoxicity of 90% or more)	5 (herbicidal effect of not less than 90%, or phytotoxicity of 90% or more)	4 (herbicidal effect of not less than 70% and less than 90%, or phytotoxicity of 70% or more and less than 90%)	5 (herbicidal effect of not less than 90%, or phytotoxicity of 90% or more)
CON=C(Cn1cc(C)c(-c2ccccc2)n1)C(=O)N1CCCCC1 [Compound 119]												0 (herbicidal effect of not less than 0% and less than 10%, or phytotoxicity of 0% or more and less than 10%)	4 (herbicidal effect of not less than 70% and less than 90%, or phytotoxicity of 70% or more and less than 90%)	4 (herbicidal effect of not less than 70% and less than 90%, or phytotoxicity of 70% or more and less than 90%)	3 (herbicidal effect of not less than 50% and less than 70%, or phytotoxicity of 50% or more and less than 70%)	3 (herbicidal effect of not less than 50% and less than 70%, or phytotoxicity of 50% or more and less than 70%)
CON=C(Cn1cc(C)c(-c2ccccc2)n1)C(=O)NNC(=O)OC [Compound 123]												0 (herbicidal effect of not less than 0% and less than 10%, or phytotoxicity of 0% or more and less than 10%)	4 (herbicidal effect of not less than 70% and less than 90%, or phytotoxicity of 70% or more and less than 90%)	4 (herbicidal effect of not less than 70% and less than 90%, or phytotoxicity of 70% or more and less than 90%)	3 (herbicidal effect of not less than 50% and less than 70%, or phytotoxicity of 50% or more and less than 70%)	3 (herbicidal effect of not less than 50% and less than 70%, or phytotoxicity of 50% or more and less than 70%)
